From patent US12383628B2 (priority 2016, dated 2025) come the findings set out here.

Square brackets hold non-standard residues; d marks the D form. Peptide text beside a SMILES is read from it. Phe(3-Br) = N[C@@H](Cc1cccc(Br)c1)C(=O)O; Phe(4-Br) = N[C@@H](Cc1ccc(Br)cc1)C(=O)O; Phe(3-I) = N[C@@H](Cc1cccc(I)c1)C(=O)O; 2Nal = N[C@@H](Cc1ccc2ccccc2c1)C(=O)O; Cha = N[C@@H](CC1CCCCC1)C(=O)O

The first data set can be described thus: Peptide gelation (tilted tube / inverted vial test, minimum gelation concentration). Format: physicochemical. The note with it: 2% w/v, PBS 10 mM, pH 7.4. As to the method:
The peptide gelation occurred by dissolving the TFA salt of the hexapeptide (2 mg) in 100 μL of PBS solution (pH 7.4) or physiological saline solution (0.9% NaCl).
Both peptides 2 and 4 (Table 1) gave a transparent gel in the same conditions (PBS 10 mM at pH 7.4 with a minimum gelation concentration of 24 mM; 2% w/v). To evaluate the mechanical properties of these hydrogels in a more quantitative manner, rheological experiments were performed. The viscoelastic properties of the peptide hydrogels were measured by dynamic rheometry at 37° C. This technique allowed to measure the storage modulus G′ (corresponding to the material's stiffness or rigidity), loss modulus G″ (corresponding to the viscous properties of the material) and loss factor tan (o) (ratio of G″ over G′). According to the Winter-Chambon criterion, a material reaches gelation in rheological terms if the phase angle o gets frequency-independent (F. Chambon et al., 1987 and H. Winter et al., 1987).
The peptide gelation occurred by dissolving the TFA salt of the peptide in 100 μL of PBS solution or physiological saline solution (0.9% NaCl) (pH 7.4).
The peptide gelation occurs by dissolving the TFA salt of the hydrogelator (1 or 2 mg) in 100 μL of aqueous media, PBS solution (pH 7.4) or physiological saline solution (0.9% NaCl). After successive vortexing and sonication, the gel is left to rest overnight at room temperature.
The hydrogelation was realized under physiologically relevant conditions, namely via the addition of phosphate-buffered saline (PBS) or sterile physiological saline solution (0.9% NaCl). The needed amount of hydrogelator was weighed in an Eppendorf® and solubilized by the addition of the above solutions. After vortex and sonication steps, the resulting solution was left at room temperature until gelation occurred. The gelation was qualitatively verified by the inverted vial test (if no gravitational flow was visible the gelation was considered successful). It can be noticed that all peptide hydrogelators depicted formed gels in PBS and saline solution at a concentration of 1 to 2% w/v.
Take `NCCCC[C@H](NC(=O)[C@H](CC1CCCCC1)NC(=O)[C@H](CCC(N)=O)NC(=O)[C@H](CC1CCCCC1)NC(=O)[C@H](CCC(=O)O)NC(=O)[C@@H](N)CC1CCCCC1)C(N)=O` [compound 9, H-Cha-Glu-Cha-Gln-Cha-Lys-NH2] (H-[Cha]E[Cha]Q[Cha]K-NH2): the Gelation behaviour result is reported as “formed gels”.
Same read-out and setting: under “Ac-Phe-Glu-Phe*-Gln-Phe-Lys-NH2 [peptide 3]” stands “macroscopic aggregation”; under “H-AEAQAK-NH2 [compound 8, H-Ala-Glu-Ala-Gln-Ala-Lys-NH2]”, “remained in solution”.

The same data set, now with this note: in PBS; '/' = no gel.
For the compound `NCCCC[C@H](NC(=O)[C@H](CC1CCCCC1)NC(=O)[C@H](CCC(N)=O)NC(=O)[C@H](CC1CCCCC1)NC(=O)[C@H](CCC(=O)O)NC(=O)[C@@H](N)CC1CCCCC1)C(N)=O` [compound 9, H-Cha-Glu-Cha-Gln-Cha-Lys-NH2] (H-[Cha]E[Cha]Q[Cha]K-NH2), the “Minimum gelation concentration (w/v % in PBS)” value stood at 2 w/v %.
On the same count and under the same terms, under `NCCCC[C@H](NC(=O)[C@H](Cc1ccc2ccccc2c1)NC(=O)[C@H](CCC(N)=O)NC(=O)[C@H](Cc1ccc2ccccc2c1)NC(=O)[C@H](CCC(=O)O)NC(=O)[C@@H](N)Cc1ccc2ccccc2c1)C(N)=O` [compound 13, H-(2-Nal)-Glu-(2-Nal)-Gln-(2-Nal)-Lys-NH2] (H-[2Nal]E[2Nal]Q[2Nal]K-NH2) stands 2 w/v %.
As to `NCCCC[C@H](NC(=O)[C@H](Cc1cccc(Br)c1)NC(=O)[C@H](CCC(N)=O)NC(=O)[C@H](Cc1ccccc1)NC(=O)[C@H](CCC(N)=O)NC(=O)[C@@H](N)Cc1ccccc1)C(N)=O` [compound 31, H-Phe-Gln-Phe-Gln-Phe(3Br)-Lys-NH2] (H-FQFQ[Phe(3-Br)]K-NH2), the “Minimum gelation concentration (w/v % in PBS)” value is 1-2 w/v %.
The same measure, in the same setting: then `NCCCC[C@H](NC(=O)[C@H](Cc1cccc(Br)c1)NC(=O)[C@H](CCC(N)=O)NC(=O)[C@H](Cc1cccc(Br)c1)NC(=O)[C@H](CCC(N)=O)NC(=O)[C@@H](N)Cc1ccccc1)C(N)=O` [compound 32, H-Phe-Gln-Phe(3Br)-Gln-Phe(3Br)-Lys-NH2] (H-FQ[Phe(3-Br)]Q[Phe(3-Br)]K-NH2), with 1-2 w/v %; and `NCCCC[C@H](NC(=O)[C@H](Cc1ccccc1)NC(=O)[C@H](CCC(N)=O)NC(=O)[C@H](Cc1cccc(Br)c1)NC(=O)[C@H](CCC(N)=O)NC(=O)[C@@H](N)Cc1ccccc1)C(N)=O` [compound 34, H-Phe-Gln-Phe(3Br)-Gln-Phe-Lys-NH2] (H-FQ[Phe(3-Br)]QFK-NH2), with 1-2 w/v %; and `NCCCC[C@H](NC(=O)[C@H](Cc1ccc(Br)cc1)NC(=O)[C@H](CCC(N)=O)NC(=O)[C@H](Cc1ccc(Br)cc1)NC(=O)[C@H](CCC(N)=O)NC(=O)[C@@H](N)Cc1ccc(Br)cc1)C(N)=O` [compound 35, H-Phe(4Br)-Gln-Phe(4Br)-Gln-Phe(4Br)-Lys-NH2] (H-[Phe(4-Br)]Q[Phe(4-Br)]Q[Phe(4-Br)]K-NH2), with 1-2 w/v %.
For `NCCCC[C@H](NC(=O)[C@H](Cc1cccc(I)c1)NC(=O)[C@H](CCC(N)=O)NC(=O)[C@H](Cc1ccccc1)NC(=O)[C@H](CCC(N)=O)NC(=O)[C@@H](N)Cc1ccccc1)C(N)=O` [compound 36, H-Phe-Gln-Phe-Gln-Phe(3I)-Lys-NH2] (H-FQFQ[Phe(3-I)]K-NH2), the “Minimum gelation concentration (w/v % in PBS)” value is 1-2 w/v %.
On the same count and under the same terms, then `NCCCC[C@H](NC(=O)[C@H](Cc1cccc(I)c1)NC(=O)[C@H](CCC(N)=O)NC(=O)[C@H](Cc1cccc(I)c1)NC(=O)[C@H](CCC(N)=O)NC(=O)[C@@H](N)Cc1ccccc1)C(N)=O` [compound 37, H-Phe-Gln-Phe(3I)-Gln-Phe(3I)-Lys-NH2] (H-FQ[Phe(3-I)]Q[Phe(3-I)]K-NH2), with 1-2 w/v %; and “H-DLys-DPhe-DAsn-DPhe*-DGlu-DPhe-NH2 (H-[dK][dF][dN]F[dE][dF]-NH2; not fully specified (residue 4)) [compound 22]”, with 2 w/v %.
With “H-DLys-DPhe-DGln-DPhe*-DGlu-DPhe-NH2 (H-[dK][dF][dQ]F[dE][dF]-NH2; not fully specified (residue 4)) [compound 19]”, the “Minimum gelation concentration (w/v % in PBS)” value stood at 2 w/v %.
Turning to “H-DLys-DPhe-DGlu-DPhe*-DGlu-DPhe-NH2 (H-[dK][dF][dE]F[dE][dF]-NH2; not fully specified (residue 4)) [compound 23]”, the “Minimum gelation concentration (w/v % in PBS)” value turned out to be 2 w/v %.
